Data as given in publication PMC7565984, “A Phosphorylation-Induced Switch in the Nuclear Localization Sequence of the Intrinsically Disordered NUPR1 Hampers Binding to Importin” (Biomolecules, 2020).
pKd: −log10 of the molar value. Where a SMILES comes first, the peptide text is derived from it. [ ]: non-standard residue; d: D form. pT = C[C@@H](OP(=O)(O)O)[C@H](N)C(=O)O

How the values were obtained:
[1] = molecular target: T1, human importin α3 (Impα3) (Homo sapiens, UniProt O00629); assay: ITC binding of NLS-NUPR1 peptides / NUPR1 to Impα3; conditions: for ΔH (binding enthalpy), Impα3 / −TΔS (entropic contribution), Impα3 / n (stoichiometry; fraction of binding-competent protein), Impα3 / pKd: ITC, 298 K; for ΔH (binding enthalpy), Impα3 / −TΔS (entropic contribution), Impα3 / pKd: Tris 50 mM pH 8; for ΔH (binding enthalpy), Impα3: absolute error 0.5 kcal/mol; for −TΔS (entropic contribution), Impα3: calculated from Kd and ΔH, absolute error 0.7 kcal/mol; for n (stoichiometry; fraction of binding-competent protein), Impα3: absolute error 0.2, value in parenthesis = fixed in the fit due to low affinity; for Decrease of the affinity for Impα3 relative to wt peptide: from ITC Kd values; for pKd: importin 10–20 μM in cell, peptide 150–300 μM in syringe, 1:1 model, at least duplicates, relative error 30%, read-out: Kd (dissociation constant), Impα3
T1 construct: although the IBB region maintains its independence within the whole Impα3 in terms of conformation; His-tag (N); made in house; host or cells: Escherichia coli BL21 (DE3)
T1 sequence (O00629 1-521): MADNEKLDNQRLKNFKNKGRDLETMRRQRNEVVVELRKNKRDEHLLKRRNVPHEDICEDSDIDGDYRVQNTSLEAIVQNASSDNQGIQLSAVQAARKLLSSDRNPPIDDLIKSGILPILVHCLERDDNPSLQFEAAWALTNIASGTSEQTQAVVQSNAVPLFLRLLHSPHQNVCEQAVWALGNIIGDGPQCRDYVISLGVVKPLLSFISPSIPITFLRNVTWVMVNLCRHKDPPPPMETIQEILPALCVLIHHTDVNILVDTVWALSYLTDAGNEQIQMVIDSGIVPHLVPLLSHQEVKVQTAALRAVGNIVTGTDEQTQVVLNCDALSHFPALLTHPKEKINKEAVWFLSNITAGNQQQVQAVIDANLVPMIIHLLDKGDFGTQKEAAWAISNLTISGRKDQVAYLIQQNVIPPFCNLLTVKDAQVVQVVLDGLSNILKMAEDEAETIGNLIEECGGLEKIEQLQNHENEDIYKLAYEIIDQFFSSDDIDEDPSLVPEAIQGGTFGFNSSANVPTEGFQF
Protocol: (§1) The experimental set-up and data processing of ITC experiments has been described previously. Calorimetric titrations, performed in an Auto-iTC200 calorimeter (MicroCal, Malvern-Panalytical, Malvern, UK) consisted of series of 19 2-μL injections, with 150 s time spacing and a 750-rpm stirring speed. Impα3 or ΔImpα3 (at 10–20 μM) was loaded into the calorimetric cell and NLS-NUPR1 peptides in the syringe (150–300 μM); all solutions were prepared in buffer Tris 50 mM, pH 8. […] The binding affinity (association constant) and the binding enthalpy were estimated through a least-squares nonlinear regression data analysis, from which the Gibbs energy and the entropic contribution to the binding were calculated using well-known thermodynamic relationships. Since the binding stoichiometry is constrained by the model, the parameter n provides a fraction of the active or binding competent protein. Experiments for each peptide and importin species were performed, at least, in duplicates.

[2] = molecular target: T2, ΔImpα3 (importin α3 without the IBB domain, residues 64-521) (Homo sapiens, UniProt O00629); assay: ITC binding of NLS-NUPR1 peptides / NUPR1 to ΔImpα3; conditions: ITC, 298 K; for ΔH (binding enthalpy), ΔImpα3: absolute error 0.5 kcal/mol; for −TΔS (entropic contribution), ΔImpα3: calculated from Kd and ΔH, absolute error 0.7 kcal/mol; for n (stoichiometry; fraction of binding-competent protein), ΔImpα3: absolute error 0.2, value in parenthesis = fixed in the fit due to low affinity
T2 construct: The His-tagged ΔImpα3 (residues 64-521) was obtained from BL21 (DE3) cells as described; His-tag; made in house; host or cells: Escherichia coli BL21 (DE3)
T2 sequence (O00629 64-521): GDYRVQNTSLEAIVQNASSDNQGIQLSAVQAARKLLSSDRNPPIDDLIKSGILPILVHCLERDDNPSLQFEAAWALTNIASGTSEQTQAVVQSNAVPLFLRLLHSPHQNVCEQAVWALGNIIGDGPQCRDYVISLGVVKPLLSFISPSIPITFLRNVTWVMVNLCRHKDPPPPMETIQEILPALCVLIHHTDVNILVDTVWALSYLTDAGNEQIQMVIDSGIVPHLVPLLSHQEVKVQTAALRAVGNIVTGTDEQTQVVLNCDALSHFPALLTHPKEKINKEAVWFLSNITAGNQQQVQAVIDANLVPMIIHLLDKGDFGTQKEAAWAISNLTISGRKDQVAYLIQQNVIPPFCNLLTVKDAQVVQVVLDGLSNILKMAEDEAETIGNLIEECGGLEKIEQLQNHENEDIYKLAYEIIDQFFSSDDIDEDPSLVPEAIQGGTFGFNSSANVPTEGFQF
Protocol: as §1

[3] = Translational diffusion by NMR DOSY (hydrodynamic properties); type: physicochemical; conditions: for D, translational diffusion coefficient: 283 K, pH 7.2, 50-mM deuterated Tris, 100% D2O, peptide 120 μM; for Rh, hydrodynamic radius from D: from the translational diffusion coefficient of dioxane (Rh = 2.12 Å) added to each sample
Protocol: Concentrations of peptides in all DOSY experiments were 120 μM, and 128 scans, where the gradient strength was varied, were acquired for each curve. Translational self-diffusion measurements were performed with the pulsed gradient spin-echo sequence in the presence of 100% D2O. Experimental details have been described elsewhere. Briefly, the gradient strength was varied in sixteen linear steps between 2% and 95% of the total power of the gradient coil. The gradient strength was previously calibrated by using the value of the translational diffusion coefficient, D, for the residual proton water line in a sample containing 100% D2O in a 5-mm tube [34]. In our experiments for each peptide, the duration of the gradient was 2.25 ms, the time between the two pulse gradients in the pulse sequence was set to 200 ms, and the recovery delay between the bipolar gradients was set to 100 μs. The methyl groups with signals between 1.0 and 0.80 ppm were used for integration. Fitting of the exponential curves obtained from experimental data was carried out with KaleidaGraph (Synergy Software, Version 3.5), as described. A final concentration of 1% of dioxane, which was assumed to have a hydrodynamic radius Rh = 2.12 Å [34], was added to the solutions of each of the peptides to have a comparison for estimating their sizes.

Structure (SMILES)	ΔH (binding enthalpy), Impα3 [1]	−TΔS (entropic contribution), Impα3 [1]	n (stoichiometry; fraction of binding-competent protein), Impα3 [1]	Decrease of the affinity for Impα3 relative to wt peptide [1]	ΔH (binding enthalpy), ΔImpα3 ([2]; Tris 50 mM pH 8)	−TΔS (entropic contribution), ΔImpα3 ([2]; Tris 50 mM pH 8)	n (stoichiometry; fraction of binding-competent protein), ΔImpα3 [2]	D, translational diffusion coefficient [3]	Rh, hydrodynamic radius from D [3]	pKd [1]	pKd ([2]; Tris 50 mM pH 8, importin 10–20 μM in cell, peptide 150–300 μM in syringe, 1:1 model, at least duplicates, relative error 30%, read-out: Kd (dissociation constant), ΔImpα3)
CC(=O)N[C@@H](Cc1ccc(O)cc1)C(=O)N[C@H](C(=O)N[C@@H](CC(N)=O)C(=O)N[C@@H](CCCNC(=N)N)C(=O)N1CCC[C@H]1C(=O)N[C@@H](CO)C(=O)N1CCC[C@H]1C(=O)NCC(=O)NCC(=O)N[C@@H](Cc1c[nH]cn1)C(=O)N[C@@H](CCC(=O)O)C(=O)N[C@@H](CCCNC(=N)N)C(=O)N[C@@H](C)C(=O)N[C@@H](CC(C)C)C(=O)N[C@H](C(=O)N[C@H](C(=O)N[C@@H](CCCCN)C(=O)N[C@@H](CC(C)C)C(=O)N[C@@H](CCC(N)=O)C(=O)N[C@@H](CC(N)=O)C(=O)N[C@@H](CO)C(=O)N[C@@H](CCC(=O)O)C(N)=O)[C@@H](C)O)C(C)C)[C@@H](C)O [K65A] (Ac-YTNRPSPGGHERALVTKLQNSE-NH2)	-2.8 kcal/mol	-4.6 kcal/mol	1.4	two-fold	-10.2 kcal/mol	2.6 kcal/mol	1.4	1.94 ± 0.08 cm^2 s^−1 × 10^6	11 ± 1 Å	–	–
CC(=O)N[C@@H](Cc1ccc(O)cc1)C(=O)N[C@H](C(=O)N[C@@H](CC(N)=O)C(=O)N[C@@H](CCCNC(=N)N)C(=O)N1CCC[C@H]1C(=O)N[C@@H](CO)C(=O)N1CCC[C@H]1C(=O)NCC(=O)NCC(=O)N[C@@H](Cc1c[nH]cn1)C(=O)N[C@@H](CCC(=O)O)C(=O)N[C@@H](CCCNC(=N)N)C(=O)N[C@@H](CCCCN)C(=O)N[C@@H](CC(C)C)C(=O)N[C@H](C(=O)N[C@H](C(=O)N[C@@H](C)C(=O)N[C@@H](CC(C)C)C(=O)N[C@@H](CCC(N)=O)C(=O)N[C@@H](CC(N)=O)C(=O)N[C@@H](CO)C(=O)N[C@@H](CCC(=O)O)C(N)=O)[C@@H](C)O)C(C)C)[C@@H](C)O [K69A] (Ac-YTNRPSPGGHERKLVTALQNSE-NH2)	-10.8 kcal/mol	4.0 kcal/mol	1.3	six-fold	-21.3 kcal/mol	14.3 kcal/mol	1.4	1.79 ± 0.06 cm^2 s^−1 × 10^6	12 ± 2 Å	–	–
CC(=O)N[C@@H](Cc1ccc(O)cc1)C(=O)N[C@H](C(=O)N[C@@H](CC(N)=O)C(=O)N[C@@H](CCCNC(=N)N)C(=O)N1CCC[C@H]1C(=O)N[C@@H](CO)C(=O)N1CCC[C@H]1C(=O)NCC(=O)NCC(=O)N[C@@H](Cc1c[nH]cn1)C(=O)N[C@@H](CCC(=O)O)C(=O)N[C@@H](CCCNC(=N)N)C(=O)N[C@@H](CCCCN)C(=O)N[C@@H](CC(C)C)C(=O)N[C@H](C(=O)N[C@@H](CCC(=O)O)C(=O)N[C@@H](C)C(=O)N[C@@H](CC(C)C)C(=O)N[C@@H](CCC(N)=O)C(=O)N[C@@H](CC(N)=O)C(=O)N[C@@H](CO)C(=O)N[C@@H](CCC(=O)O)C(N)=O)C(C)C)[C@@H](C)O [T68EK69A] (Ac-YTNRPSPGGHERKLVEALQNSE-NH2)	-7.5 kcal/mol	1.0 kcal/mol	–	–	-21.2 kcal/mol	14.7 kcal/mol	–	1.87 ± 0.08 cm^2 s^−1 × 10^6	11 ± 1 Å	4.77	4.77
CC(=O)N[C@@H](Cc1ccc(O)cc1)C(=O)N[C@H](C(=O)N[C@@H](CC(N)=O)C(=O)N[C@@H](CCCNC(=N)N)C(=O)N1CCC[C@H]1C(=O)N[C@@H](CO)C(=O)N1CCC[C@H]1C(=O)NCC(=O)NCC(=O)N[C@@H](Cc1c[nH]cn1)C(=O)N[C@@H](CCC(=O)O)C(=O)N[C@@H](CCCNC(=N)N)C(=O)N[C@@H](CCCCN)C(=O)N[C@@H](CC(C)C)C(=O)N[C@H](C(=O)N[C@@H](CCC(=O)O)C(=O)N[C@@H](CCCCN)C(=O)N[C@@H](CC(C)C)C(=O)N[C@@H](CCC(N)=O)C(=O)N[C@@H](CC(N)=O)C(=O)N[C@@H](CO)C(=O)N[C@@H](CCC(=O)O)C(N)=O)C(C)C)[C@@H](C)O [T68E] (Ac-YTNRPSPGGHERKLVEKLQNSE-NH2)	-11.1 kcal/mol	4.7 kcal/mol	–	–	-17.5 kcal/mol	10.8 kcal/mol	–	2.17 ± 0.06 cm^2 s^−1 × 10^6	10 ± 1 Å	–	–
CC(=O)N[C@@H](Cc1ccc(O)cc1)C(=O)N[C@H](C(=O)N[C@@H](CC(N)=O)C(=O)N[C@@H](CCCNC(=N)N)C(=O)N1CCC[C@H]1C(=O)N[C@@H](CO)C(=O)N1CCC[C@H]1C(=O)NCC(=O)NCC(=O)N[C@@H](Cc1c[nH]cn1)C(=O)N[C@@H](CCC(=O)O)C(=O)N[C@@H](CCCNC(=N)N)C(=O)N[C@@H](CCCCN)C(=O)N[C@@H](CC(C)C)C(=O)N[C@H](C(=O)N[C@H](C(=O)N[C@@H](CCCCN)C(=O)N[C@@H](CC(C)C)C(=O)N[C@@H](CCC(N)=O)C(=O)N[C@@H](CC(N)=O)C(=O)N[C@@H](CO)C(=O)N[C@@H](CCC(=O)O)C(N)=O)[C@@H](C)OP(=O)(O)O)C(C)C)[C@@H](C)O [pT68] (Ac-YTNRPSPGGHERKLV[pT]KLQNSE-NH2)	-14.8 kcal/mol	–	–	–	-28.2 kcal/mol	22.0 kcal/mol	–	1.89 ± 0.08 cm^2 s^−1 × 10^6	11 ± 1 Å	4.57	–
